PubChem BioAssay AID1963862 (Molecular Pharmacology Branch, DTP, NCI, 2024)

System: KRAS patient-derived spheroids with HUVEC/MSC, viability
Assay: Anticancer human tumor 941728-121-R-J1-PDC patient-derived lung adenocarcinoma cell line growth inhibition [KRAS2]
Conditions: for IC50: curve of first compound; for viability, T/C: stronger effect = lower value; active = viability on the fitted dose curve at most 10% of control; inactive = the rest
Summary of the method: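 Combination screen of spheroid viability in tumor-cell co-cultures with endothelial (HUVEC) and mesenchymal stem cell stroma. Each agent was tested in half-log dilutions, topping at clinical Cmax or at 10 microM without a known Cmax.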

[1] = second compound 0.0316 µM, first compound 0.0316 µM
[2] = second compound 0.0316 µM, first compound 0.1 µM
[3] = second compound 0.0316 µM, first compound 0.316 µM
[4] = second compound 0.0316 µM, first compound 1 µM
[5] = second compound 0.0316 µM, first compound 3.16 µM
[6] = second compound 0.1 µM, first compound 0.01 µM
[7] = second compound 0.1 µM, first compound 0.0316 µM
[8] = second compound 0.1 µM, first compound 0.1 µM
[9] = second compound 0.1 µM, first compound 0.316 µM
[10] = second compound 0.1 µM, first compound 1 µM
[11] = second compound 0.1 µM, first compound 3.16 µM
[12] = second compound 0.316 µM, first compound 0.01 µM
[13] = second compound 0.316 µM, first compound 0.0316 µM
[14] = second compound 0.316 µM, first compound 0.1 µM
[15] = second compound 0.316 µM, first compound 0.316 µM
[16] = second compound 0.316 µM, first compound 1 µM
[17] = second compound 0.316 µM, first compound 3.16 µM
[18] = second compound 1 µM, first compound 0.01 µM
[19] = second compound 1 µM, first compound 0.0316 µM
[20] = second compound 1 µM, first compound 0.1 µM
[21] = second compound 1 µM, first compound 0.316 µM
[22] = second compound 1 µM, first compound 1 µM
[23] = second compound 1 µM, first compound 3.16 µM
[24] = second compound 3.16 µM, first compound 0.01 µM
[25] = second compound 3.16 µM, first compound 0.0316 µM
[26] = second compound 3.16 µM, first compound 0.1 µM
[27] = second compound 3.16 µM, first compound 0.316 µM
[28] = second compound 3.16 µM, first compound 1 µM
[29] = second compound 3.16 µM, first compound 3.16 µM
[30] = second compound 0.0316 µM, first compound 10 µM
[31] = second compound 0.1 µM, first compound 10 µM
[32] = second compound 0.316 µM, first compound 10 µM
[33] = second compound 1 µM, first compound 10 µM
[34] = second compound 3.16 µM, first compound 10 µM
[35] = second compound 10 µM, first compound 0.01 µM
[36] = second compound 10 µM, first compound 0.0316 µM
[37] = second compound 10 µM, first compound 0.1 µM
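Also: spheroids exposed to agents for seven days before readout.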

CC1COCCN1c1cc(-c2ccnn2C)c2ccnc(-c3ccn[nH]3)c2n1 (stereo not given) + C=CC(=O)N1CCN(c2nc(OCC3CCCN3C)nc3c2CCN(c2cccc4cccc(C)c24)C3)CC1CC#N
inactive: viability, T/C (second compound 0.0316 µM, first compound 0.01 µM) 26.5% | viability, T/C [1] 24.8% | viability, T/C [2] 19.9% | viability, T/C [3] 19.6% | viability, T/C [4] 16.9% | viability, T/C [5] 14.6% | viability, T/C [6] 26.5% | viability, T/C [7] 28.3% | viability, T/C [8] 19.9% | viability, T/C [9] 18.5% | viability, T/C [10] 16.6% | viability, T/C [11] 13.3% | viability, T/C [12] 23% | viability, T/C [13] 22.7% | viability, T/C [14] 25.9% | viability, T/C [15] 17.6% | viability, T/C [16] 16.1% | viability, T/C [17] 12.8% | viability, T/C [18] 22.9% | viability, T/C [19] 24.2% | viability, T/C [20] 19% | viability, T/C [21] 18.1% | viability, T/C [22] 18.9% | viability, T/C [23] 15.4%
active: viability, T/C [24] 2.14% | viability, T/C [25] 10.7% | viability, T/C [26] 2.17% | viability, T/C [27] 1.73% | viability, T/C [28] 6.37% | viability, T/C [29] 6%
< 10 nM: IC50 (second compound 0.0316 µM) | IC50 (second compound 0.1 µM) | IC50 (second compound 0.316 µM) | IC50 (second compound 1 µM) | IC50 (second compound 3.16 µM)

CC1OCC2(CCN(c3cnc(Sc4ccnc(N)c4Cl)c(N)n3)CC2)C1N (stereo not given) + C=CC(=O)N1CCN(c2nc(OCC3CCCN3C)nc3c2CCN(c2cccc4cccc(C)c24)C3)CC1CC#N
active: viability, T/C [25] 4.61% | viability, T/C [26] 10.1% | viability, T/C [27] 4.45% | viability, T/C [28] 4.43% | viability, T/C [29] 4.99% | viability, T/C [34] 9.3%
inactive: viability, T/C [1] 32.3% | viability, T/C [2] 28.9% | viability, T/C [3] 25.4% | viability, T/C [4] 26.4% | viability, T/C [5] 23.6% | viability, T/C [30] 18.4% | viability, T/C [7] 31.4% | viability, T/C [8] 28.9% | viability, T/C [9] 25.6% | viability, T/C [10] 26.3% | viability, T/C [11] 25.4% | viability, T/C [31] 20.6% | viability, T/C [13] 32.8% | viability, T/C [14] 30.8% | viability, T/C [15] 28% | viability, T/C [16] 26.9% | viability, T/C [17] 25.1% | viability, T/C [32] 23.7% | viability, T/C [19] 32.8% | viability, T/C [20] 34.8% | viability, T/C [21] 32.7% | viability, T/C [22] 28.2% | viability, T/C [23] 29.1% | viability, T/C [33] 28.4%
< 31.6 nM: IC50 (second compound 0.0316 µM) | IC50 (second compound 0.1 µM) | IC50 (second compound 0.316 µM) | IC50 (second compound 1 µM) | IC50 (second compound 3.16 µM)

CCNC(=O)CC1N=C(c2ccc(Cl)cc2)c2cc(OC)ccc2-n2c(C)nnc21 (stereo not given) + C=CC(=O)N1CCN(c2nc(OCC3CCCN3C)nc3c2CCN(c2cccc4cccc(C)c24)C3)CC1CC#N
< 31.6 nM: IC50 (second compound 0.0316 µM) | IC50 (second compound 0.1 µM) | IC50 (second compound 1 µM) | IC50 (second compound 3.16 µM)
active: viability, T/C [33] 10.6% | viability, T/C [25] 1.15% | viability, T/C [26] 1.91% | viability, T/C [27] 0.39% | viability, T/C [28] 1.58% | viability, T/C [29] 0.42% | viability, T/C [34] 0.35%
inactive: viability, T/C [1] 31.2% | viability, T/C [2] 33.5% | viability, T/C [3] 24.4% | viability, T/C [4] 20.3% | viability, T/C [5] 16.1% | viability, T/C [30] 14.9% | viability, T/C [7] 27.5% | viability, T/C [8] 26.7% | viability, T/C [9] 22.2% | viability, T/C [10] 16.4% | viability, T/C [11] 12.3% | viability, T/C [31] 15.4% | viability, T/C [13] 49.5% | viability, T/C [14] 66.1% | viability, T/C [15] 47% | viability, T/C [16] 39.8% | viability, T/C [17] 33.6% | viability, T/C [32] 33.7% | viability, T/C [19] 27.3% | viability, T/C [20] 28% | viability, T/C [21] 21.1% | viability, T/C [22] 16.2% | viability, T/C [23] 12%
230 nM: IC50 (second compound 0.316 µM)

Cn1nccc1Nc1nccc(-c2cc3c(s2)C(C)(C)N(CCN2CCOCC2)C3=O)n1 + C=CC(=O)N1CCN(c2nc(OCC3CCCN3C)nc3c2CCN(c2cccc4cccc(C)c24)C3)CC1CC#N
< 31.6 nM: IC50 (second compound 0.0316 µM) | IC50 (second compound 0.1 µM) | IC50 (second compound 0.316 µM) | IC50 (second compound 1 µM) | IC50 (second compound 3.16 µM)
inactive: viability, T/C [1] 29.5% | viability, T/C [2] 28.2% | viability, T/C [3] 25.1% | viability, T/C [4] 19.9% | viability, T/C [5] 22.3% | viability, T/C [30] 29.2% | viability, T/C [7] 26.6% | viability, T/C [8] 24.5% | viability, T/C [9] 22.1% | viability, T/C [10] 18.8% | viability, T/C [11] 20.7% | viability, T/C [31] 28.4% | viability, T/C [13] 26.1% | viability, T/C [14] 24.2% | viability, T/C [15] 21.4% | viability, T/C [16] 21.9% | viability, T/C [17] 19.1% | viability, T/C [32] 29.2% | viability, T/C [19] 27.1% | viability, T/C [20] 26.8% | viability, T/C [21] 23% | viability, T/C [22] 29.2% | viability, T/C [23] 22.2% | viability, T/C [33] 34.1%
active: viability, T/C [25] 1.07% | viability, T/C [26] 0.7% | viability, T/C [27] 1.22% | viability, T/C [28] 1.67% | viability, T/C [29] 0.97% | viability, T/C [34] 0.27%

CC(=O)OC12COC1CC(O)C1(C)C(=O)C(O)C3=C(C)C(OC(=O)C(O)C(NC(=O)OC(C)(C)C)c4ccccc4)CC(O)(C(OC(=O)c4ccccc4)C21)C3(C)C (stereo not given) + CC1OCC2(CCN(c3cnc(Sc4ccnc(N)c4Cl)c(N)n3)CC2)C1N
< 10 nM: IC50 (second compound 0.1 µM) | IC50 (second compound 0.316 µM) | IC50 (second compound 1 µM) | IC50 (second compound 3.16 µM) | IC50 (second compound 10 µM)
inactive: viability, T/C [6] 42.3% | viability, T/C [7] 34.6% | viability, T/C [8] 33.9% | viability, T/C [9] 39.2% | viability, T/C [10] 39.5% | viability, T/C [11] 41.6% | viability, T/C [12] 37.1% | viability, T/C [13] 34.4% | viability, T/C [14] 30.2% | viability, T/C [15] 32.1% | viability, T/C [16] 37.2% | viability, T/C [17] 38.9% | viability, T/C [18] 49.8% | viability, T/C [19] 52.4% | viability, T/C [20] 44% | viability, T/C [21] 45.9% | viability, T/C [22] 53.4% | viability, T/C [23] 54% | viability, T/C [24] 24.4% | viability, T/C [25] 23.3% | viability, T/C [26] 21.5% | viability, T/C [27] 27.3% | viability, T/C [28] 29.8% | viability, T/C [29] 27.4% | viability, T/C [35] 26.5% | viability, T/C [36] 25.6% | viability, T/C [37] 23.1% | viability, T/C (second compound 10 µM, first compound 0.316 µM) 24.8% | viability, T/C (second compound 10 µM, first compound 1 µM) 30.1% | viability, T/C (second compound 10 µM, first compound 3.16 µM) 30.2%

CN(C)C/C=C/C(=O)Nc1cc2c(Nc3ccc(F)c(Cl)c3)ncnc2cc1O[C@H]1CCOC1 + CC1OCC2(CCN(c3cnc(Sc4ccnc(N)c4Cl)c(N)n3)CC2)C1N
0.52 nM: IC50 (second compound 10 µM)
> 100 nM: IC50 (second compound 1 µM)
< 0.316 nM: IC50 (second compound 0.1 µM) | IC50 (second compound 0.316 µM) | IC50 (second compound 3.16 µM)
inactive: viability, T/C (second compound 0.1 µM, first compound 0.000316 µM) 38.3% | viability, T/C (second compound 0.1 µM, first compound 0.001 µM) 41.9% | viability, T/C (second compound 0.1 µM, first compound 0.00316 µM) 45.5% | viability, T/C [6] 44.5% | viability, T/C [7] 41.4% | viability, T/C [8] 43.3% | viability, T/C (second compound 0.316 µM, first compound 0.000316 µM) 33.7% | viability, T/C (second compound 0.316 µM, first compound 0.001 µM) 35.2% | viability, T/C (second compound 0.316 µM, first compound 0.00316 µM) 43.1% | viability, T/C [12] 42.3% | viability, T/C [13] 45.8% | viability, T/C [14] 41.2% | viability, T/C (second compound 1 µM, first compound 0.000316 µM) 70.1% | viability, T/C (second compound 1 µM, first compound 0.001 µM) 52.4% | viability, T/C (second compound 1 µM, first compound 0.00316 µM) 63.1% | viability, T/C [18] 70.6% | viability, T/C [19] 58.4% | viability, T/C [20] 51.9% | viability, T/C (second compound 3.16 µM, first compound 0.000316 µM) 29.7% | viability, T/C (second compound 3.16 µM, first compound 0.001 µM) 28.3% | viability, T/C (second compound 3.16 µM, first compound 0.00316 µM) 30.2% | viability, T/C [24] 31.6% | viability, T/C [25] 31.3% | viability, T/C [26] 36.7% | viability, T/C (second compound 10 µM, first compound 0.000316 µM) 54.6% | viability, T/C (second compound 10 µM, first compound 0.001 µM) 45% | viability, T/C (second compound 10 µM, first compound 0.00316 µM) 30.6% | viability, T/C [35] 52.5% | viability, T/C [36] 31.3% | viability, T/C [37] 31%
